Test results published in patent US11857535B2, “Methods of treating mutant lymphomas” (Kymera Therapeutics, Inc., priority 2020, dated 2024).
Read-outs that look alike come from different tables or passages of the source.

Experiment: 7.3 Pharmacokinetic characterization, single or repeated oral administration, cynomolgus monkeys
Settings: cynomolgus monkey, in vivo, PO dosing in NHP
Text: 7.3 Pharmacokinetic Characterization of Compound A following Single or Repeated Oral Administrations to Male and Female Cynomolgus Monkeys
The objective of this study is to determine the pharmacokinetics of Compound A following single or repeated oral administrations of Compound A in male and female cynomolgus monkeys. The test article will be measured in plasma at selected time points for up to 14 days post dosing.
Formulation: 10% HP-β-CD in water at pH 3.5 (w/v) in water at pH 3.5 (w/v) • Prepare the 10% HP-β-CD vehicle on a (w/v) basis • Add compound with stirring. • Heat to ˜50 C for 10 minutes. […]
LC-MS/MS method development: • 1. A LC-MS/MS method for the quantitative determination of test compound in biological matrix will be developed under non-GLP compliance. • 2. […] N in 1 cassette LC-MS/MS method can be developed for samples coming from different studies as long as these studies belong to same sponsor and the interference among all cassette analytes will be evaluated during the method development. • 5. […] If such kind cassette assay is still requested by the study sponsor, interference between analytes will not be evaluated but the LC separation of those analytes by using a generic method will be tried. […] Biological sample in matrix other than plasma can be diluted with plasma first and then quantified against plasma calibration curve. […]

Which results are given for `CC(C)(O)c1cc2nc([C@H]3CC[C@H](CN4CC5(CC(CCNc6cccc7c6C(=O)N(C6CCC(=O)NC6=O)C7=O)C5)C4)CC3)sc2cc1NC(=O)c1cccc(C(F)(F)F)n1` (some centres unmarked) [Compound A, N-(2-((1r,4r)-4-((6-(2-((2-(2,6-dioxopiperidin-3-yl)-1,3-dioxoisoindolin-4-yl)amino)ethyl)-2-azaspiro[3.3]heptan-2-yl)methyl)cyclohexyl)-5-(2-hydroxypropan-2-yl)benzo[d]thiazol-6-yl)-6-(trifluoromethyl)picolinamide]?
Target AUC0-168 exposure range (schedule D1, D4, read-out: Target exposure Range (Ly10-DHL2) AUC0-168): 7 to 18 µM·h; Target AUC0-168 exposure range (schedule D1, read-out: Target exposure Range (Ly10-DHL2) AUC0-168): 18 to 54 µM·h
